Source: patent US9295673B2, “Combination of mTOR inhibitors and P13-kinase inhibitors, and uses thereof” (Intellikine LLC, priority 2011, dated 2016)
One block for each compound: values may come before it.

Key:
breast cancer model = assay: Preclinical breast cancer model (tumor weight / volume); type: in vivo; settings: for tumor weight in a preclinical breast cancer model: combined treatment with Compound A and Compound B (FIG. 2); for tumor weight of a breast cancer model: 70 mg/kg Pan-PI3K inhibitor, 60 mg/kg compound A (FIG. 9 left)
[1] = test system: Akt, S6, 4EBP phosphorylation; assay: Western blot of PI3K pathway phosphorylation (Akt, S6, 4EBP); type: cell-based; settings: for inhibition of Akt, S6, and 4EBP phosphorylation: PTEN mutant cells, western blot (FIG. 6B); for downregulating Akt and S6 phosphorylation: combined treatment with Compound A and Compound B, western blot (FIG. 3)
NRDG1 phosphorylation = assay: Western blot of NRDG1 phosphorylation; type: cell-based; settings: western blot (FIG. 5B)
[2] = test system: pAKT(S473), pAKT(T308) in PC3 cells; assay: Western blot of Akt phosphorylation (pAKT) in PC3 cells; type: cell-based
Description: (§1) Cells comprising one or more mutations in PI3Kα, including but not limited to breast cancer cells (e.g., MDA-MB-361, T47D, SKOV-3), and cells comprising one or more mutations in PTEN including but not limited to prostate cancer cells (e.g., PC3), are typically grown in cell growth media such as DMEM supplemented with fetal bovine serum and/or antibiotics, and grown to confluency. Cells are then treated with various concentrations of test compound for about 2 hours and subsequently lysed in cell lysis buffer. Lysates are subjected to SDS-PAGE followed by Western blot analysis to detect downstream signaling markers, including but not limited to pAKT(S473), pAKT(T308), pS6, and p4E-BP1.

[3] = test system: 786-O human kidney carcinoma tumors; assay: In vivo efficacy in 786-O xenograft model; set-up: species or system nude mice; settings: oral, FIG. 6
[4] = test system: mTORC1 and mTORC2 in 786-O cells; assay: Western blot of pNDRG1 in 786-O cells (mTOR pathways); type: cell-based, human; settings: FIG. 5
human tumor cell lines = assay: Tumor cell line proliferation assay; type: cell-based; settings: chart (FIG. 13)
Description: The ability of one or more subject compounds to inhibit tumor cell line proliferation is determined according to standard procedures known in the art. For instance, an in vitro cellular proliferation assay can be performed to measure the metabolic activity of live cells. The assay is performed in a 96 well microtiter plate using Alamar Blue reduction. Human tumor cell lines are obtained from ATCC (e.g., MCF7, U-87 MG, MDA-MB-468, PC-3), grown to confluency in T75 flasks, trypsinized with 0.25% trypsin, washed one time with Tumor Cell Media (DMEM+10% FBS), and plated in 90 ul at 5,000 cells/well in Tumor Cell Media. A compound disclosed herein is diluted in Tumor Cell Media and added in a 10 ul volume. Plates are incubated for 72 hours at 37 C and 5% CO2. A volume of 10 uL of Alamar Blue reagent is added to each well and plates are incubated for 3 hours at 37 C and 5% CO2. Alamar Blue fluoresce is read at 560Ex/590Em, and IC50 values are calculated using GraphPad Prism 5.

B cell function = B cell function in vivo (TNP-Ficoll immunization, antibody production); set-up: species or system mouse; settings: mice immunized with TNP-Ficoll; 70 mg/kg GDC0941; 30, 60 or 120 mg/kg Compound A for 7 days (FIG. 8)
[5] = test system: pAKT(S473) in MDA-MB-361 cells; assay: Western blot of Akt phosphorylation (pAKT) in MDA-MB-361 cells; type: cell-based, human; settings: about 2 hours treatment, read-out: inhibition of pAKT, IC50
Description: as §1
MDA-MB-361(PIK3CA-E545K), MDA-MB-453 (PIK3CA-H1047R), and SK-Br3 (Her2) cells were treated with various concentrations of Compound A for 2 h and subsequently lysed. Lysates were subjected to SDS-PAGE followed by Western blot analysis as described above to detect downstream pathway markers.

MDA-MB-361 cells = assay: Cell proliferation (CellTiter-Glo) in MDA-MB-361 cells; type: cell-based, human; settings: read-out: inhibition of cell proliferation, IC50
Description: as §1
Cells were seeded at 5000-10,000 per well in a 96 well flat bottom plate 90 ul growth media. Pre-diluted compound (at 10 times the final concentration) or DMSO (control) was added. The compounds were prepared such that the dose range extended from a final concentration of 30 μM to 14 nM via 3-fold serial dilutions (8 point curve). The final DMSO concentration was 0.3%. […] After 72 hours, proliferation was measured using CellTiter-Glo Luminescent reagent (Promega, PR-G7573). […] Contents were mixed for 30 minutes on an orbital shaker to lyse cells Luminescence was read on a PerkinElmer EnVision plate reader. […] Inhibition % was calculated as: 1−(cells+inhibitor)−background signal)/(cells+DMSO)−background signal)[…].

[6] = test system: MDA-MB-361 (PI3Kα/HER2 carcinoma) tumors; assay: In vivo efficacy in MDA-MB-361 xenograft mouse model of breast cancer; set-up: species or system nude mice; settings: 70 mg/kg Pan-PI3K inhibitor, 60 mg/kg compound A, FIG. 9 left panel
Description: Blood glucose was monitored periodically following administration of treatment.
Treatment of tumors (MDA-MB-361) with compounds was discontinued on Day 30. Tumors were measured every 2-5 days.

PI3K α = PI3K α (Homo sapiens, UniProt P42336); assay: PI 3-Kinase (human) HTRF assay, PI3K α
Sequence of PI3K α (P42336 whole entry): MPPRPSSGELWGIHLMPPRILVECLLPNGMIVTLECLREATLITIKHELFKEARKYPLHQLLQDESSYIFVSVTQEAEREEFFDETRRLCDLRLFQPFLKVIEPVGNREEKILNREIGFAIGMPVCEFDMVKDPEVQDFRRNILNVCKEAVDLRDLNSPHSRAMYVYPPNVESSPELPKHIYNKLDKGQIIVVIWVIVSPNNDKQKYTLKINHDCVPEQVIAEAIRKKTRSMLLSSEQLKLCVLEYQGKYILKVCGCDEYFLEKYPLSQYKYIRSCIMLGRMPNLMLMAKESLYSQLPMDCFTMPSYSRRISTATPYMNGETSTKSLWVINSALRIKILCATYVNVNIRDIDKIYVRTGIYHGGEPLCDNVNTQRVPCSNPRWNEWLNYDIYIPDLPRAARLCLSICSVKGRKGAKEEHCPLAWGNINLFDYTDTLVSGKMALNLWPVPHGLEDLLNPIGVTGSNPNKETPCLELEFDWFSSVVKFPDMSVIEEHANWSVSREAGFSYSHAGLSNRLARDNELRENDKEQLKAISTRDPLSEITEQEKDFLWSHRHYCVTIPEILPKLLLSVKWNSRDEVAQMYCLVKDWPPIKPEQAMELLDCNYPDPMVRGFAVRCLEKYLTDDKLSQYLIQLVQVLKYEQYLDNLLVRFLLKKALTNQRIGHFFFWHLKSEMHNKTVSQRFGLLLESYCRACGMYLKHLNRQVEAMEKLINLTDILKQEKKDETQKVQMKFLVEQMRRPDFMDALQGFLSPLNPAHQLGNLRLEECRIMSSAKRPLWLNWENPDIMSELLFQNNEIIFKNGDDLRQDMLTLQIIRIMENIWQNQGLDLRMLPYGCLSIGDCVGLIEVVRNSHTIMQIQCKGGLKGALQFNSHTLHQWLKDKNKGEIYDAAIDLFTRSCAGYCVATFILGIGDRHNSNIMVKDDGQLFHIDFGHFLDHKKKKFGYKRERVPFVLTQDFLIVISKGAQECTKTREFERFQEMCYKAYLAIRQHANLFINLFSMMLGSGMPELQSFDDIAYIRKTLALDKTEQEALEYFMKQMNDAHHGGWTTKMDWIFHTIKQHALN
Sequence of PI3K α (P27986 whole entry partner): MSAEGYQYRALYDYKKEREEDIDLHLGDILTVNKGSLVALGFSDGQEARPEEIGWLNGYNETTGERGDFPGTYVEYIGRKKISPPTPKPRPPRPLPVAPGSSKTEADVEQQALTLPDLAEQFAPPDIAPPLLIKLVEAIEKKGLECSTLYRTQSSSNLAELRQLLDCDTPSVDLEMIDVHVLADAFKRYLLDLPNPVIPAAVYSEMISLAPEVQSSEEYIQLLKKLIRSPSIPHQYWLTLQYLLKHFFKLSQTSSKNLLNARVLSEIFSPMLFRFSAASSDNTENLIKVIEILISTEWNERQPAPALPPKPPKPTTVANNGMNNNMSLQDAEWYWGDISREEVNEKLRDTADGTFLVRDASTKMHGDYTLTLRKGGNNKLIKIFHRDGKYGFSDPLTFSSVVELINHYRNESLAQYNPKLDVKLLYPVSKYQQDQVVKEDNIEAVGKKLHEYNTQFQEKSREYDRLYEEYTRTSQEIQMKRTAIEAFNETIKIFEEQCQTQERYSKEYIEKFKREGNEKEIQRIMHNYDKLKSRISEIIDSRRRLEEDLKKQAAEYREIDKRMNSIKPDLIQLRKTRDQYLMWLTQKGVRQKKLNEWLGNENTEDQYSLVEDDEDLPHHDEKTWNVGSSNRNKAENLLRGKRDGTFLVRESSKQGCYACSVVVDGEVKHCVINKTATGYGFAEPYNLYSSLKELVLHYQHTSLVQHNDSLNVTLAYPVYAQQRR

MZB cells = MZB cells in mouse spleen; type: in vivo; settings: 70 mg/kg Pan-PI3K inhibitor compared to 60 mg/kg Compound A (FIG. 9 right)
[7] = test system: anti-TNP antibody production; assay: TNP-Ficoll T-cell independent B-cell activation assay; type: in vivo; settings: mice, 7 days; 70 mg/kg GDC0941; 30, 60, 120 mg/kg Compound A; ELISA; FIG. 8
Description: To test the effects of the compounds of the present invention in suppressing T cell independent antibody production, the TNP-Ficoll B-cell activation assay is used as described herein. Compounds of the present invention are dissolved in an appropriate vehicle (e.g. 5% 1-methyl-2-pyrrolidinone, 85% polyethylene glycol 400, 10% Solutor). Compounds are administered orally approximately 1 hr before TNP-Ficoll treatment to 4-10 week old mice. To study the effects of the compounds on B-cell activation, one set of mice are grouped according to the following table:
Four animals in group 1, and eight animals in groups 2 to 7 are euthanized in CO2 2 hours after the last compound administration on day 7. […]
Serum samples are analyzed for anti-TNP antibody titers by ELISA as described herein. […] HRP substrate (200 μl ABTS solution+30% H2O2+10 ml citrate buffer) is added to each well at 100 μl/well, incubated 2-20 minutes in the dark and the amount of anti-TNP IgG3 is determined spectrophotometrically at 405 nm. Similarly, anti-TNP IgM and total anti-TNP Ab are determined using anti-mouse IgM-HRP and anti-mouse Ig-HRP respectively.
Antibody production was measured using ELISA and plotted as as a percentage of control group that were treated with vehicle.

marginal zone B cells = assay: Marginal zone B cells in mouse spleen (FACS); settings: 70 mg/kg Pan-PI3K inhibitor, 60 mg/kg Compound A; spleens harvested 2 hrs after last dose; FIG. 9
mTOR = biological target: T1, mTOR (Homo sapiens, UniProt P42345); assay: mTOR kinase inhibition assay (radiometric or LanthaScreen TR-FRET); type: biochemical; settings: Table 1; read-out: mTOR IC50
T1 construct: purchased Invitrogen
T1 sequence (P42345 1360-2549 limits assumed): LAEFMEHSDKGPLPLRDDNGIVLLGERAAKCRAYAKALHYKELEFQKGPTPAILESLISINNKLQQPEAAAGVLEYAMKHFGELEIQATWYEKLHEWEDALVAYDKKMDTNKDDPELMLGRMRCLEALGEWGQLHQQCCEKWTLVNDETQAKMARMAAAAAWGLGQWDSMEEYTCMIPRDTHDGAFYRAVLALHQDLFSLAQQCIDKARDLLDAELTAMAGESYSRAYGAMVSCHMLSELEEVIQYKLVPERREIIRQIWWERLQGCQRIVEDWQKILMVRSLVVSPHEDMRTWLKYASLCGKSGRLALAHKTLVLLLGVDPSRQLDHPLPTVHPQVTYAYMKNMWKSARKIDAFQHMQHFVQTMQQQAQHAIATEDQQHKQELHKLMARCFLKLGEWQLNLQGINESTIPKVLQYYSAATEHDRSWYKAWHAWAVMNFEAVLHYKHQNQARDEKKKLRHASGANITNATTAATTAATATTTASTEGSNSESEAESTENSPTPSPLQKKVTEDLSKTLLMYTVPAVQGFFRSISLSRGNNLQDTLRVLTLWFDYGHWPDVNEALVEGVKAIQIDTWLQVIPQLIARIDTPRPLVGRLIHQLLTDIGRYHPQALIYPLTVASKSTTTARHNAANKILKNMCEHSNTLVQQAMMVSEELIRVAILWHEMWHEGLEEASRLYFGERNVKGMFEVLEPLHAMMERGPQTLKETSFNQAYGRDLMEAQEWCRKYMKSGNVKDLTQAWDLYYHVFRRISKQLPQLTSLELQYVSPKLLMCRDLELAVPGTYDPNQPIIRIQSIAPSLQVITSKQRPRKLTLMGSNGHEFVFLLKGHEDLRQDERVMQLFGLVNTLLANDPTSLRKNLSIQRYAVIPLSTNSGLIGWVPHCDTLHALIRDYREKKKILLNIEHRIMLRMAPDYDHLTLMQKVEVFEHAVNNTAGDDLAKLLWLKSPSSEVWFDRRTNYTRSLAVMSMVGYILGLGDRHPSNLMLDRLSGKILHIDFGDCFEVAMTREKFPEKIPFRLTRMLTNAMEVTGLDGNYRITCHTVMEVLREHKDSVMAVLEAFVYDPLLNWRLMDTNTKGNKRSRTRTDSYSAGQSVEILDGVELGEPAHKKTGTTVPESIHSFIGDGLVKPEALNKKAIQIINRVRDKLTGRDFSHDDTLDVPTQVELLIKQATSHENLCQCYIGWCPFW

PC3 = PC3 proliferation (Alamar Blue); type: cell-based; settings: Homo sapiens, PC-3; Table 1
PI3K β = PI3K β (Homo sapiens, UniProt P42338); assay: PI 3-Kinase (human) HTRF assay, PI3K β
PI3K γ = PI3K γ (Homo sapiens, UniProt P48736); assay: PI 3-Kinase (human) HTRF assay, PI3K γ
PI3K δ = PI3K δ (Homo sapiens, UniProt O00329); assay: PI 3-Kinase (human) HTRF assay, PI3K δ
Sequence of PI3K δ (O00329 whole entry): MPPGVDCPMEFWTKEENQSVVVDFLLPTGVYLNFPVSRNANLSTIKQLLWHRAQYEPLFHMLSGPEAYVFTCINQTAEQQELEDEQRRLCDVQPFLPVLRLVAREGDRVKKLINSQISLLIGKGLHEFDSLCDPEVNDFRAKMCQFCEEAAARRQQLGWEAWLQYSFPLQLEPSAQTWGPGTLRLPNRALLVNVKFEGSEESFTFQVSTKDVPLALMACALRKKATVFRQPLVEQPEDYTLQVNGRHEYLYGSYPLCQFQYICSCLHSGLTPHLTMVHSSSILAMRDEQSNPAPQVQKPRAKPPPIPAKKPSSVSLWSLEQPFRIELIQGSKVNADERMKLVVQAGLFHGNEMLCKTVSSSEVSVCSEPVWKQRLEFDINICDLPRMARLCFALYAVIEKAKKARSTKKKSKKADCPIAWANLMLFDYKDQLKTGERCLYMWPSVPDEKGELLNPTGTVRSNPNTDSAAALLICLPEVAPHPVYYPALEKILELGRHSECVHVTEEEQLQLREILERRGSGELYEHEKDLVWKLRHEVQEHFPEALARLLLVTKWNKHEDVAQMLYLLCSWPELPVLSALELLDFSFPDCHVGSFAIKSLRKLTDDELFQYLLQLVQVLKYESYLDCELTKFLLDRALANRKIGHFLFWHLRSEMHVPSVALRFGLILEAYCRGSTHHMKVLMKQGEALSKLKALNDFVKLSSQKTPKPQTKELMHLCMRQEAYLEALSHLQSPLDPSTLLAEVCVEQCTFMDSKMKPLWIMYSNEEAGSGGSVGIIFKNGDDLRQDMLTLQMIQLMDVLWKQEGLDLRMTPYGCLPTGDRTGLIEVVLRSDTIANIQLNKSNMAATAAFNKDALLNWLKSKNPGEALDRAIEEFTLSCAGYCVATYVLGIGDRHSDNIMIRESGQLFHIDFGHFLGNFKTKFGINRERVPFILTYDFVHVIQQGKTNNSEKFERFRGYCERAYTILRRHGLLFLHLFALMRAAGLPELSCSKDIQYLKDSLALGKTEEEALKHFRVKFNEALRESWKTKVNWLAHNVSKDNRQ
Sequence of PI3K δ (P27986 whole entry partner): as the sequence (P27986 whole entry partner) above

SMILES: CC(C)n1nc(-c2ccc3oc(N)nc3c2)c2c(N)ncnc21 [Compound B]
tumor weight in a preclinical breast cancer model (breast cancer model): synergistic effect
inhibition of Akt, S6, and 4EBP phosphorylation [1]: selective inhibition
downregulating Akt and S6 phosphorylation [1]: synergistic effect
inhibition of Akt phosphorylation at serine 473 over threonine 308 ([1]; western blot (FIG. 7)): differential inhibition
mTORC1-dependent NRDG1 phosphorylation (NRDG1 phosphorylation): sensitivity
inhibition of Akt phosphorylation, serine 473 versus threonine 308 ([2]; PC3 model, FIG. 7): differential inhibition of Akt phosphorylation at serine 473 over threonine 308
inhibition of kinase activity (downstream markers) and tumor growth [3]: effective at inhibiting kinase activity
effects on mTORC1 and mTORC2 (pNDRG1) [4]: differential effects on mTORC1 and mTORC2

IC50 [5]: ~1000 nM
IC50 ([2]; PC3 cells, about 2 hours treatment, read-out: inhibition of pAKT, IC50): ~10000 nM
IC50 (MDA-MB-361 cells): ~1900 nM
specificity in inhibiting PI3K α over mTOR and other PI3K isoforms (PI3K α; chart (FIG. 6C)): specificity
SMILES: Nc1nc2cc(-c3ccc4ncc(C(=O)N5CCOCC5)n4c3)ccc2o1 [Compound A]
proliferation of tumor cells harboring PI3K α mutations (human tumor cell lines): preferentially inhibits
tumor weight of a breast cancer model (breast cancer model): reduction in tumor weight
tumor weight in a preclinical breast cancer model (breast cancer model): synergistic effect
reducing tumor volume of a preclinical breast cancer model (breast cancer model; combined treatment with Compound A and rapamycin (FIG. 4)): synergistic effect
inhibition of the PI3K pathway in cell lines with elevated PI3K α activity ([1]; MDA-MB-361, MDA-MB-453, SKBr3 breast cancer cells, western blot (FIG. 11)): inhibition
inhibition of Akt, S6, and 4EBP phosphorylation [1]: not
Akt phosphorylation at serine 473 ([1]; PTEN-mutant cell line (FIG. 12B)): reduced inhibition
downregulating Akt and S6 phosphorylation [1]: synergistic effect
Akt phosphorylation at serine 473 ([1]; western blot (FIG. 12A)): inhibition
B cell function in vivo (antibody production) (B cell function): not
tumor weight [6]: reduction in tumor weight
inhibition of kinase activity (downstream markers) and tumor growth [3]: decreased activity by comparison to that seen in the MDA derived tumors

SMILES: CS(=O)(=O)N1CCN(Cc2cc3nc(-c4cccc5[nH]ncc45)nc(N4CCOCC4)c3s2)CC1 [Pan-PI3K inhibitor, GDC0941, reference compound]
tumor weight of a breast cancer model (breast cancer model): reduction in tumor weight
B cell function in vivo (antibody production) (B cell function): blocks
presence of MZB cells in mouse spleen (MZB cells): reduced presence
tumor weight [6]: reduction in tumor weight
B cell function in vivo (antibody production after TNP-Ficoll) [7]: blocks B cell function in vivo
presence (localization/viability) of marginal zone B cells in spleen (marginal zone B cells): reduced presence of MZB cells

SMILES: C=Cc1oc(NC(C)=O)nc1/C=C/c1nn(C)c2ncnc(N)c12 [Compound 2]
IC50 (mTOR): < 100 nM
EC50 (PC3): < 1000 nM
IC50 (PI3K α): < 10000 nM
IC50 (PI3K β): > 10000 nM
IC50 (PI3K γ): < 1000 nM
IC50 (PI3K δ): < 1000 nM
